The NIST ThermoML archive (doi:10.1016/j.jct.2018.02.013)

Legend:
[1] = 101.33 kPa, Liquid; for thermal conductivity: transient hot wire; for mass density: Vibrating tube method; for viscosity: Cone and plate viscometry; for electrical conductivity: Direct current cell with electrodes
[2] = molar heat capacity at constant pressure; settings: 101.33 kPa, Liquid, Small sample (50 mg) DSC

CCCCCC(=O)[O-].CCCCCCCCCCCCCC[P+](CCCCCC)(CCCCCC)CCCCCC [trihexyl(tetradecyl)phosphonium hexanoate]
Settings | electrical conductivity [S/m] | mass density [kg/m3] | molar heat capacity at constant pressure [J/K/mol] | thermal conductivity [W/m/K] | viscosity [mPa·s]
[1], 278.22 K | – | – | – | 0.1591 | –
[1], 287.73 K | – | – | – | 0.1574 | –
[1], 293.15 K | – | 888.5 | – | – | –
[1], 293.2 K | – | – | – | – | 435.1
[1], 298.15 K | – | 885.5 | – | – | –
[1], 298.2 K | – | – | – | – | 343.1
[1], 298.98 K | – | – | – | 0.156 | –
[1], 299.6 K | 0.0033 | – | – | – | –
[1], 303.15 K | – | 882.3 | – | – | –
[1], 303.2 K | – | – | – | – | 260.7
[1], 303.8 K | 0.00454 | – | – | – | –
[1], 307.3 K | – | – | – | 0.1547 | –
[1], 308.1 K | 0.00563 | – | – | – | –
[1], 308.2 K | – | – | – | – | 200
[1], 313.15 K | – | 876 | – | – | –
[1], 313.2 K | – | – | – | – | 155.8
[1], 313.9 K | 0.00765 | – | – | – | –
[1], 318.15 K | – | – | – | 0.1533 | –
[1], 318.2 K | – | – | – | – | 123.4
[1], 318.4 K | 0.00943 | – | – | – | –
[1], 323.15 K | – | 869.7 | – | – | –
[1], 323.2 K | – | – | – | – | 99.18
[1], 323.6 K | 0.0118 | – | – | – | –
[1], 328 K | 0.0144 | – | – | – | –
[1], 328.2 K | – | – | – | – | 80.79
[1], 329.17 K | – | – | – | 0.151 | –
[1], 333.15 K | – | 863.6 | – | – | –
[1], 333.2 K | – | – | – | – | 66.6
[1], 333.6 K | 0.018 | – | – | – | –
[1], 336.96 K | – | – | – | 0.15 | –
[1], 338.2 K | – | – | – | – | 55.39
[1], 338.9 K | 0.0223 | – | – | – | –
[1], 343 K | 0.026 | – | – | – | –
[1], 343.15 K | – | 857.5 | – | – | –
[1], 343.2 K | – | – | – | – | 46.46
[1], 347.73 K | – | – | – | 0.1497 | –
[1], 348.2 K | – | – | – | – | 39.52
[1], 349.3 K | 0.0325 | – | – | – | –
[1], 353.15 K | – | 851.5 | – | – | –
[1], 353.2 K | – | – | – | – | 33.7
[1], 357.74 K | – | – | – | 0.1476 | –
[1], 358.2 K | – | – | – | – | 28.97
[1], 363.15 K | – | 845.4 | – | – | –
[1], 363.2 K | – | – | – | – | 25.05
[1], 368.2 K | – | – | – | – | 21.82
[2], 293.15 K | – | – | 1133.3 | – | –
[2], 298.15 K | – | – | 1141.7 | – | –
[2], 303.15 K | – | – | 1149.5 | – | –
[2], 308.15 K | – | – | 1156.7 | – | –
[2], 313.15 K | – | – | 1163.9 | – | –
[2], 318.15 K | – | – | 1169.3 | – | –
[2], 323.15 K | – | – | 1176.4 | – | –
[2], 328.15 K | – | – | 1182.4 | – | –
[2], 333.15 K | – | – | 1189 | – | –
[2], 338.15 K | – | – | 1196.8 | – | –
[2], 343.15 K | – | – | 1204 | – | –
[2], 348.15 K | – | – | 1211.2 | – | –
[2], 353.15 K | – | – | 1219 | – | –
[2], 358.15 K | – | – | 1227.4 | – | –
[2], 363.15 K | – | – | 1235.2 | – | –
